Data reported in US12697343B2, “Intravenous istaroxime for the treatment of acute heart failure” (Seismic Pharmaceuticals Operations LLC, priority 2021, dated 2026).
Counter-ions that a name gives are not always drawn.

Columns and labels:
[1] = system: patients hospitalized for acute heart failure (AHF); set-up: species or system human; conditions: in vivo
Procedure: The primary efficacy endpoint was the change from baseline to 24 h after the start of the infusion in the E/e ratio assessed by tissue Doppler echocardiography. Secondary endpoints included the change from baseline to 24 h of other echocardiography parameters: LVEF, left ventricular end-systolic and end-diastolic volumes, stroke volume index, E, A, E/A ratio, and S′: changes in dyspnoea by visual analogue scale (VAS) and in NT-proBNP from baseline to 24 h: proportion of patients with hospital readmissions or emergency visits for cardiovascular reasons by day 30; proportion of patients with episodes of in-hospital worsening heart failure to day 4, and length of stay. […] Safety endpoints were assessed throughout the study and included: incidence of adverse events (AEs): change in vital signs and in 12-lead electrocardiographic (ECG) parameters: incidence of clinically or haemodynamically significant episodes of supraventricular or ventricular arrhythmias detected by continuous ECG monitoring: standard laboratory parameters: renal function: cardiac troponin T (cTnT): incidence of cTnT elevations, and mortality at day 30. […]
The study design included a 24 h screening period, a 24 h study drug infusion phase (day 1), a post-treatment phase (days 2-4), and a follow-up visit at day 30 (FIG. 5). […] AEs were monitored throughout the duration of the study.

[2] = system: patients hospitalized for acute heart failure (AHF); conditions: 1.0 μg/kg/min group; Carubelli et al.; cited from earlier work
[3] = system: patients hospitalized for acute heart failure (AHF); experiment: Diuresis over 24 h during and after study drug infusion; format: in vivo, human
Source text: This study was a phase II, multicenter, randomized, double-blind, placebo-controlled, parallel group investigation, conducted at two sites in Italy and eight sites in China. All patients provided written informed consent. The study was approved by country regulatory authorities and by local institutional review boards. The trial is registered in the European Clinical Trials Database (EudraCT 2013-000540-26) and ClinicalTrials.gov (NCT02617446).
Patients were randomized 2:1 to istaroxime or placebo 24 h infusion and were enrolled in two sequential cohorts, the first with an istaroxime dose of 0.5 μg/kg/min and the second with an istaroxime dose of 1.0 μg/kg/min. At the end of cohort 1 enrollment, an independent Data Safety and Monitoring Board conducted an interim safety analysis of unblinded data before proceeding to cohort 2 enrollment. Inclusion criteria were: age ≥18 years, an ongoing hospitalization for AHF with dyspnoea at rest or minimal exertion and need for intravenous diuretic therapy (40 mg intravenous furosemide), SBP between 90 and 125 mmHg without signs or symptoms of peripheral hypoperfusion: LVEF ≤40%: intermediate to high E/e′ ratio by tissue Doppler echocardiography (10); brain natriuretic peptide (BNP) or N-terminal pro BNP (NT-proBNP) plasma levels ≥350 pg/mL or ≥1400 pg/mL, respectively, and presence of adequate echocardiographic windows. The main exclusion criteria were: concomitant or planned treatment with intravenous vasodilators, inotropes or vasopressors: treatment with oral digoxin (patients treated with digoxin within the last week could be randomized if the plasma concentration at screening was 0.5 ng/mL); acute coronary syndrome or stroke within the past 3 months: coronary artery bypass graft or percutaneous coronary intervention within the past month or planned in the next month: resting HR >120 bpm or <50 bpm: life-threatening ventricular arrhythmia or implantable cardioverter-defibrillator shock within the past month: fever 38° C.; serum creatinine 3.0 mg/dL or estimated glomerular filtration rate (eGFR) 30 mL/min/m2; serum potassium 5.3 mmol/L or 3.8 mmol/L; severe hepatic dysfunction.
The study design included a 24 h screening period, a 24 h study drug infusion phase (day 1), a post-treatment phase (days 2-4), and a follow-up visit at day 30 (FIG. 5). Patients could be enrolled at any time after admission. The use of oral medications was permitted during the study with the exception of digoxin. Intravenous diuretics were permitted during the treatment period at stable doses, unless changes were required due to clinically relevant variations of the patient's condition. If treatment with an inotrope was clinically necessary during the infusion period, the investigational product was discontinued. Echocardiography was performed according to international standards at screening, baseline (just before starting study drug infusion), 6, 24 h (just before infusion end), and 48 h after infusion start. Echocardiographic measurements at baseline, 6, 24, and 48 h were evaluated in a blinded fashion by a CoreLab located at the University and Civil Hospital of Brescia, Italy. E/e′ ratio was calculated as the ratio between the peak early diastolic mitral flow velocity (E wave) and the mean of the annular lateral (e′ lateral) and septal (e′ septal) velocities, according to standard guidelines.^20 Intraobserver and interobserver variability in E/e′ measurement was tested on the 15% of the recordings and is shown in FIG. 6. Self-reported dyspnoea was assessed using a 100 mm VAS, with zero representing the worst level of dyspnoea and 10 the best breathing condition. Twenty-four hour ECG monitoring was performed using a three-lead device (Mortara industries, Milwaukee, WI, USA) during the day of screening, the infusion period, and the day after (the latter was optional). Analysis was conducted by a blinded CoreLab (ICS Maugeri, Italy). […]

## C[C@]12CCC(=NOCCN)C[C@@H]1C(=O)C[C@@H]1[C@@H]2CC[C@]2(C)C(=O)CC[C@@H]12 [Istaroxime, (E,Z)-3-((2-aminoethoxy)imino)androstane-6,17-dione hydrochloride]
[1]
  clinically significant arrhythmias, 24 h Holter monitoring: no differences
[2]
  Serious adverse events, percent: 15%
[3]; 0.5 μg/kg/min, 0-24 h
  Diuresis, median: 2700 mL
[3]; 0.5 μg/kg/min, 24-48 h
  Diuresis, median: 1800 mL
[3]; 0.5 μg/kg/min, 48-72 h
  Diuresis, median: 1650 mL
[3]; 1.0 μg/kg/min, 0-24 h
  Diuresis, median: 1975 mL
[3]; 1.0 μg/kg/min, 24-48 h
  Diuresis, median: 1260 mL
[3]; 1.0 μg/kg/min, 48-72 h
  Diuresis, median: 1350 mL
[3]; compared to placebo
  Overall diuresis during the 24 h infusion: numerically higher
